We go through eight compounds from patent publication US5589510A, “Method for inhibiting retroviral infection by administering a naphthalenesulfonic acid compound” (priority 1995, dated 1996).

Data set [1] relates to HIV-1 RF. In words: Antiviral assay, Experimental Protocol I (compound added after infection). Format: cell-based. As to conditions: Human immunodeficiency virus 1, 240 h, p24 ELISA, read-out: % Inhibition (after day 10); for inhibition at 0.6 µg/mL: 0.6 μg/ml; for inhibition at 1.25 µg/mL: 1.25 μg/ml; for inhibition at 2.5 µg/mL: 2.5 μg/ml; for inhibition at 5 µg/mL: 5 μg/ml. A general note: ELISA stands for enzyme-linked immunosorbent assay.

A short description of data set [2]: LD50, intravenous, mice. Format: in vivo. The conditions noted are these: female mice, mortalities within 1 week; for LD50 at 168 h: mouse, in vivo. As to the method:
The test material was administered intravenously to 5 female mice in five increasing doses. Mortalities were recorded within 1 week, and the LD50 was determined with the aid of statistical calculations.

Data set [3] deals with T1, recombinant reverse transcriptase (RT) (Human immunodeficiency virus type 1 group M subtype B, UniProt P04585).
T1 construct: purchased Worthington Biochemical Corporation
In words: Reverse transcriptase inhibition assay. Format: biochemical, HIV-1. How it is done:
Inhibition of recombinant reverse transcriptase (RT) was performed by using commercially available Boehringer Mannheim RT assay kit (Cat. No. 1468 120) based on incorporation of digoxigenin labeled dUTP into DNA. Recombinant enzyme from HIV-1 was purchased from Worthington Biochemical Corporation. The level of anti-RT activity in the sample was determined by measurement of absorbance using an ELISA reader at 405 nm.

In data set [4] the test system is TA98, TA1535, TA1537, TA1538, TA100 and W2P2uvr. In words: Ames Test (in the presence of S9). Format: cell-based, Salmonella typhimurium. The conditions noted are these: for Ames Test, specific mutagenic activity: the higher the value, the higher the mutagenicity. From the text: Six Salmonella typhimuriumstrai strains, TA98, TA1535, TA1537, TA1538, TA100 and W2P2uvr were used in this experiment.

The test system of data set [5] is standard Ames Test. As to conditions: literature (K-T. Chung et al); cited from earlier work.
For data set [6], the system named is HIV-1 patient isolate IH. In words: Inhibition of HIV-1 patient isolate IH in CD4^+ cells. Format: cell-based. The conditions noted are these: Human immunodeficiency virus 1, 288 h, 10% FCS, read-out: % Inhibition (after day 12). As to the method: (§1) The inhibitory effects of additional naphthalenesulfonic acid compounds were tested as follows: Experimental Details:
(§2) PBMCs were activated for 48 hours in conditioned medium containing PHA at a concentration of 4 μg/ml. Thereafter 10^6 cells were plated in each of the 24 well plates containing 10% FCS or 50% FCS. The test compound, previously dissolved in a glucose solution (1 mg/ml), was then added to each of the wells to achieve the appropriate concentration. The plate was then incubated overnight (about 15 hours) after which 50 μl of cell-free HIV-1 patient isolate was added to each well. The plates were incubated for further 6 to 8 hours after which all free floating solution of virus was washed off. Washing was performed four times.
(§3) After removal of the virus, all cultures were resuspended in conditioned medium containing 10% FCS.
(§4) For control experiments virus growth was monitored in either 10% FCS or 50% FCS throughout the observation period (15 days).

Data set [7] has as its system HIV-1 patient isolate IH. In words: Inhibition of HIV-1 patient isolate IH in PBMCs. Format: cell-based. The conditions noted are these: Human immunodeficiency virus 1, PBMC, 288 h, read-out: % Inhibition (after day 12); for inhibition at 2.5 µg/mL: 2.5 μg/ml; for inhibition at 5 µg/mL: 5 μg/ml; for inhibition at 10 µg/mL: 10 μg/ml; for inhibition at 20 µg/mL: 20 μg/ml. As to the method:
as §1
PBMCs were activated for 48 hours in conditioned medium containing PHA at a concentration of 4 μg/ml. […] The test compound, previously dissolved in a glucose solution (1 mg/ml), was then added to each of the wells to achieve the appropriate concentration. The plate was then incubated overnight (about 15 hours) after which 50 μl of cell-free HIV-1 patient isolate was added to each well. The plates were incubated for further 6 to 8 hours after which all free floating solution of virus was washed off. Washing was performed four times.
as §3, §4

Data set [8] relates to HIV-1 RF strain. In words: SCID mouse model (SCID-hu mice infected with HIV-1). Format: in vivo. How it is done:
Immunodeficient CB-17 SCID (severe combined immunodeficient) mice were reconstituted with human peripheral blood cells (Scid-hu). Two weeks after engraftment, the presence of human IgG indicating the presence of functional T and B cells was confirmed. Four weeks after engraftment, SCID-hu mice were infected with 10^6 tissue culture infectious doses/ml (TCID) of RF strain by ip injection.
Twenty-four hours after infection, 8 infected mice were treated daily with Compound 6 aqueous 5% glucose solution by ip injection at a dose of 50 mg/kg for only five days. The same dose of D-(+)-glucose was injected into SCID hu mice as a control. One month after final ip dose, peritoneal cells from the mice were cocultured with human lymphocytes. After four weeks, cultures were scored for the production of virus by assaying HIV-1 p24 levels in the supernatant. […] On the other hand, 5 of the 8 control mice had cultivated virus.

In data set [9] the test system is HIV-1 patient isolate NIH 900285. Nature of the data set: Inhibition of HIV-1 patient isolate NIH 900285 in PBMCs. Format: cell-based. The conditions noted are these: Human immunodeficiency virus 1, PBMC, 288 h, 10% FCS, read-out: % Inhibition (after day 12). As to the method: as §1, §2, §3, §4
Data set [10] has as its system reverse transcriptase. The conditions noted are these: literature (Balzarini et al.); cited from earlier work.
In data set [11] the test system is HIV rgp120 / CD4 cells. As to conditions: literature (Balzarini et al.); cited from earlier work.
The test system of data set [12] is syncytium formation. As to conditions: literature (Mohan et al.; Tan et al.; Baba et al.); cited from earlier work.
For data set [13], the system named is retroviruses. The conditions noted are these: literature (Ito et al.); cited from earlier work.

Several values for one entry are separate records, joined by “and”; a condition that tells them apart may be missing. Equal values may be shown once. Read-outs that look alike come from different tables or passages of the source.

By inhibition is commonly meant the relative decrease from the control value, in per cent. As a reminder, the LD50 is the dose expected to kill half of the subjects tested. High values mean lower toxicity, low ones greater toxicity. In the case of `COc1cc(-c2ccc(/N=N/c3ccc4c(S(=O)(=O)O)cc(S(=O)(=O)O)c(N)c4c3O)c(OC)c2)ccc1/N=N/c1ccc2c(S(=O)(=O)O)cc(S(=O)(=O)O)c(N)c2c1O` [CSB, Chicago Sky Blue, reference compound], in data set [1] (10% FCS), the inhibition at 0.6 µg/mL was 37%, the inhibition at 1.25 µg/mL came to 70% and the inhibition at 2.5 µg/mL turned out to be 90%. The compound also had an LD50 at 168 h in data set [2] of 100 mg/kg. The “inhibitory effect against reverse transcriptase (in words)” value in data set [3] is “inhibitory effect against reverse transcriptase”. In [4], the “Ames Test result” value was “Positive” and the “Ames Test, specific mutagenic activity” value was 10 colony no/μg. In [5], the “mutagenic effects in Ames Test” value is “strong mutagenic effects”.

`COc1cc(N=Nc2c(S(=O)(=O)O)cc3cc(S(=O)(=O)O)cc(NC(=O)c4cccc5ccccc45)c3c2O)c(OC)cc1N=Nc1c(S(=O)(=O)O)cc2cc(S(=O)(=O)O)cc(NC(=O)c3ccc(Cl)cc3Cl)c2c1O` [Compound 1]: in [1] (10% FCS), the inhibition at 0.6 µg/mL was 98%, the inhibition at 1.25 µg/mL is 100%, the inhibition at 2.5 µg/mL came to 100% and the inhibition at 5 µg/mL stood at 100%. The LD50 at 168 h in data set [2] worked out at 150 mg/kg. Besides, the inhibition at 0.5 µM in [3] was 70%. Further, the “Ames Test result” value in data set [4] is “Negative”. In addition, the inhibition at 10 µg/mL in data set [6] (10 μg/ml) stood at 50%. For the same compound, the inhibition at 20 µg/mL in [6] (20 μg/ml) turned out to be 100%.

Consider `COc1cc(N=Nc2c(S(=O)(=O)O)cc3cc(S(=O)(=O)O)cc(NC(=O)c4cccc(Cl)c4Cl)c3c2O)c(OC)cc1N=Nc1c(S(=O)(=O)O)cc2cc(S(=O)(=O)O)cc(NC(=O)c3ccc(Cl)cc3Cl)c2c1O` [Compound 6], for which the inhibition at 2.5 µg/mL in data set [7] (10% FCS) is 0%; in data set [7] (50% Human Serum), 13%; in data set [1] (10% FCS) it was 100%; in [1] (50% Human Serum), 99%; in data set [9] (2.5 μg/ml), 95%. Further, the inhibition at 5 µg/mL in [7] (10% FCS) stood at 91%; in [7] (50% Human Serum), 80%; in data set [1] (10% FCS), 100%; in data set [1] (50% Human Serum) it was 100%; in [9] (5 μg/ml), 99%. Further, the inhibition at 10 µg/mL in data set [7] (10% FCS) was 82%; in [7] (50% Human Serum), 90%. Also, the inhibition at 20 µg/mL in data set [7] (10% FCS) and in [7] (50% Human Serum) was 100% in each case. The inhibition at 0.3 µg/mL in [1] (10% FCS, 0.3 μg/ml) came to 99%. Besides, the inhibition at 0.6 µg/mL in data set [1] (10% FCS) is 100%; in data set [1] (50% Human Serum) it was 63%. Also, the inhibition at 1.25 µg/mL turned out to be 100% in data set [1] (10% FCS) and 64% in [1] (50% Human Serum). Further, in data set [2], the LD50 at 168 h came to 130 mg/kg. In addition, the “detectable HIV specific p24 in mice” value in data set [8] (SCID-hu mice, 50 mg/kg ip daily for five days) is recorded as “none of the 8 mice receiving Compound 6 had any detectable HIV specific p24 above the background of the no virus control”. In addition, the “P24 Day 28” value in data set [8] (SCID-hu mice, 50 mg/kg ip daily for five days, one value per mouse, coculture supernatant, 50 mg/kg) was 46.36 pg/mL and 35.44 pg/mL and 32.61 pg/mL and 40.90 pg/mL and 34.41 pg/mL and 34.36 pg/mL and 49.46 pg/mL and 58.02 pg/mL. Besides, in data set [8] (treatment for 5 days), the “prevention of infection of reconstituted human immune cells” value was “sufficient to prevent infection of reconstituted human immune cells in an animal model”. In data set [3], the inhibition at 0.5 µM was determined as 32%. For the same compound, the inhibition at 5 µM in [3] (at 5.0 μM) turned out to be 80%. The inhibition at 1 µg/mL in data set [9] (1.0 μg/ml) turned out to be 0%. In addition, the “Ames Test result” value in data set [4] is recorded as “Negative”.

Take `Cc1cc(NC(=O)Nc2ccc(N=Nc3cc(S(=O)(=O)[O-])c4cccc(S(=O)(=O)[O-])c4c3)c(C)c2)ccc1N=Nc1cc(S(=O)(=O)[O-])c2cccc(S(=O)(=O)[O-])c2c1.[Na+].[Na+].[Na+].[Na+]` [Direct Yellow 50]: the “inhibition of reverse transcriptase” value in [10] is “inhibitors of reverse transcriptase”.

Consider `Cc1cc(-c2ccc(/N=N/c3ccc4c(S(=O)(=O)O)cc(S(=O)(=O)O)c(N)c4c3O)c(C)c2)ccc1/N=N/c1ccc2c(S(=O)(=O)O)cc(S(=O)(=O)O)c(N)c2c1O` [Evans Blue, reference compound], for which the LD50 at 168 h in [2] is 100 mg/kg. Besides, the inhibition at 0.5 µM in data set [3] worked out at 48%. Moreover, the “inhibition of interaction of HIV rgp120 with CD4 cells” value in data set [11] is “inhibitor of the interaction of HIV rgp120 with CD4 cells”. For the same compound, in data set [4], the “Ames Test result” value is given as “Positive” and the “Ames Test, specific mutagenic activity” value was found to be 10 colony no/μg. For the same compound, in [5], the “mutagenic effects in Ames Test” value was “strong mutagenic effects”.

In the case of `CC1=C/C(=C(\c2ccc(N)c(S(=O)(=O)[O-])c2)c2ccc(N)c(S(=O)(=O)O)c2)C=C(S(=O)(=O)[O-])C1=N.[Na+].[Na+]` [Fuchsin Acid, reference compound], in [2] (10080 min), the LD50 came out at 100 mg/kg. The “inhibition of syncytium formation” value in [12] is “inhibitors of syncytium formation”.

For the compound `Cc1ccc(C(=O)Nc2ccc(S(=O)(=O)O)c3cc(S(=O)(=O)O)cc(S(=O)(=O)O)c23)cc1NC(=O)c1cccc(NC(=O)Nc2cccc(C(=O)Nc3cc(C(=O)Nc4ccc(S(=O)(=O)O)c5cc(S(=O)(=O)O)cc(S(=O)(=O)O)c45)ccc3C)c2)c1` [Suramin, reference compound], the “inhibition of reverse transcriptase” value in data set [10] is “inhibitors of reverse transcriptase”. In data set [1] (10% FCS), the inhibition at 1.25 µg/mL was found to be 0%, the inhibition at 2.5 µg/mL is 0% and the inhibition at 5 µg/mL came out at 0%. Besides, the LD50 at 168 h in [2] is 40 mg/kg. Further, in data set [3], the “inhibitory effect against reverse transcriptase (in words)” value is “inhibitory effect against reverse transcriptase” and the inhibition at 0.5 µM was found to be 68%.

Turning to dextran sulfate, the anti-retroviral activity result in [13] was “known anti-retroviral compounds”.
